Source: patent US20260183297A1, “SELECTION OF PATIENTS FOR THE TREATMENT OF FADS1-MEDIATED DISEASES OR DISORDERS USING FADS-1 INHIBITORS” (AMGEN INC., priority 2022, published 2026)

Columns and labels:
Format in all cases: in vivo, mouse
[1] = Indirect calorimetry studies (CLAMS); settings: DIO mice, 30 mg/kg
Protocol: Twenty-four Fads1 KO and 24 WT mice entered the Comprehensive Laboratory Animal Monitoring System (CLAMS; Columbus Instruments, Columbus, Ohio—Oxymax Model 2018, 0233-004M, Oxymax for Windows v5.53 software, Hardware configuration 190395) before starting the HFD feeding phase, and again at 6 and 12 weeks on HFD. […] Body weight was measured daily, and food consumption was measured biweekly. Animals reentered the CLAMS on days 17-21 and on days 38-42. The volume of oxygen consumption (VO2), carbon dioxide production (VCO2), RER, and energy expenditure (HEAT) were measured during that period.

[2] = test system: liver, EPI WAT and ING WAT; experiment: RNA-Seq analysis of liver, EPI WAT and ING WAT; settings: 30 mg/kg, 54 days
Protocol: RNA was extracted by using the Qiagen RNeasy 96 Universal kit (QIAGEN, Germantown, MD). The concentration and quality of the isolated RNA samples were assessed and determined on an Agilent 4200 TapeStation system and had RNA integrity numbers more than 9.1. Adipose or liver RNA (250 ng) was used to prepare a cDNA library by using a protocol modified from the Illumina TruSeq Stranded mRNA kit (Illumina, San Diego CA). Briefly, after polyA^+ RNA selection, fragmentation, and priming, the fragmented RNA was transcribed to cDNA in the reaction of reverse transcription containing SuperScript™ II (Thermo Fisher Scientific—Invitrogen™, Waltham, MA) and RNase-out (Thermo Fisher Scientific—Invitrogen™, Waltham, MA) and, sequentially, the products of the first strand cDNA synthesis reaction were converted to double-stranded cDNAs and subjected to end repair, A-tailing, and adapter ligation by following the commercial instruction. The constructed libraries were amplified and barcoded using the PCR program: a denaturation step at 98° C. for 30 seconds, 15 cycles of 95° C. for 10 seconds, 60° C. for 30 seconds, and 72° C. for 30 seconds, and a 72° C. extension cycle for 5 minutes followed by a hold step at 4° C. Libraries were sequenced to a minimum depth of 30 million paired end reads on an Illumina HiSeq4000 with the 100 nt or 150 nt read length.
RNA-Seq sequencing reads of the mouse samples were aligned and processed using OSA aligner, which is implemented in the OmicSoft Array Suite (QIAGEN OmicSoft, Cary, NC), based on mouse genome version GRCm38 and gene model GENCODE v19. Read count quantification was performed to the gene level based on OmicSoft implementation of RSEM. Downstream analysis using the read count output was performed following the standard RNA-seq workflow of DESeq2 R/Bioconductor package. Briefly, raw read count was transformed and nonnalized using the Variance Stabilizing Transformation (VST) method. Principal component analysis (PCA) was carried out by the plotPCA function using top 1000 variable genes. Differential expression analysis based on the negative binomial distribution was performed using the DESeq function.
Gene expression was represented as normalized fragments per kilobase per million reads (FPKM). FPKM values were further normalized with a refinement of the commonly employed upper-quartile method that sets the FPKM to a value of 10 at the 70th percentile. Lowly expressed genes with fewer than five samples at FPKM≥1 were removed. Genes with Benjamini-Hochberg (BH)-adjusted P value <0.01 and fold change ≥2 or ≤0.5 were selected as DEGs. Volcano plots of differential expression analysis results were made using EnhancedVolcano R package (github.com/kevinblighe/EnhancedVolcano).
The selected DEGs were annotated by IPA (QIAGEN, Redwood City, CA) on canonical pathways and toxicity lists. Gene expression enrichment in Gene Ontology (GO), KEGG was analyzed by using Cluster Profiler R package with default parameters. Deconvolution analysis was performed using MuSiC software v0.2.0 to estimate relative cell type abundance in each mouse bulk tissue samples. The Tabula Muris single-cell RNA-seq data set was used as a reference for MuSiC algorithm. The analysis was done separately for each tissue types including EPI and ING WAT, and liver.

[3] = Liver triglyceride measurement; settings: DIO mice, 8 weeks of 10 or 30 mg/kg
Protocol: Liver total lipids were homogenized and extracted using chloroform methanol solution at a ratio of 2:1. Extracted lipids were dried under nitrogen gas and suspended in 90% isopropanol, 10% Triton X-100 solution. Liver triglyceride levels in mg/g tissue were determined using total triglyceride measurement kits from Wako Diagnostics (Richmond, VA) and Sigma-Aldrich (Burlington, MA).

## COc1ccn2c(=O)c(-c3cnn(CC(F)(F)C(F)(F)F)c3)c(C(F)(F)F)nc2c1 [Compound A, 8-methoxy-3-(1-(2,2,3,3,3-pentafluoropropyl)-1H-pyrazol-4-yl)-2-(trifluoromethyl)-4H-pyrido[1,2-a]pyrimidin-4-one]
[1]; 42 days, vs vehicle
  body weight: significantly reduced body weight
  carbon dioxide production: no differences
  energy expenditure: no differences
  oxygen consumption: no differences
[1]; at 17-23 days and 38-42 days
  light cycle RER: decreased
[1]; vs vehicle-treated mice
  activity in the dark cycle: trended to be more active
[2]; Compound A-treated WT DIO mice
  downregulated pathways (IPA) in the liver: downregulation of Acute Phase Response. AMPK Signaling, and Senescence pathways
  upregulated pathways (IPA) in the liver: upregulation of Calcium Signaling, PPARα/RXRα Activation, and Xenobiotic metabolism AHR Signaling pathways
[2]; DIO mice
  Insulin Receptor Signaling pathway (IPA) in EPI WAT: increased
  fatty acid oxidation-related genes (Cpt1a, Acox1, Acaa1a, Fgf21) in the liver: increased
  inflammation-related genes (Cc12, Cd14, Cd68) in ING WAT: decreased
  lipolysis (Lipe, Mg11, Pnpla2) and insulin-signaling genes (Insr, Irs1, Slc2a4) in EPI WAT: increased
[2]; DIO mice, relative to WT vehicle
  cellular composition of EPI WAT (immune cell population): decreases in T cells, B cells, and natural killer cells
[3]
  hepatic triglyceride content: No apparent increase
